Patent US8871767B2, “2-arylimidazo[1,2-B]pyridazine, 2-phenylimidazo[1,2-A]pyridine, and 2-phenylimidazo[1,2-A]pyrazine derivatives” (Hengrui (USA) Ltd., priority 2010, dated 2014)

What follows are molecules tested on Hedgehog pathway activation (GLi-luciferase reporter) in Shh Light II reporter cells (assay: Hedgehog pathway activation on Shh Light II reporter cells measured by luciferase activity). Settings: Mus musculus, Shh Light II, hShh activation, read-out: Shh (IC50, inhibition of Hedgehog pathway activation).
Format: cell-based
Experimental: Hedgehog conditioned media was obtained by transfecting 293H cells with the full length gene encoding human Sonic Hedgehog (hShh) inserted into the pCMV6 expression vector, which contains a neomycin selectable marker and expresses the protein of interest with a C-terminal FLAG affinity tag. After selection in G418 containing media, conditioned media from Hedgehog expressing clones were tested for the ability to activate the hedgehog-responsive GLi-luciferase reporter in the Shh Light II cell line obtained by license from John Hopkins University (Taipale J, et al. Effects of oncogenic mutations in Smoothened and Patched can be reversed by cyclopamine. Nature 406: 1005-1009, 2000).
A test compound library was screened against hShh and 500 nM SAG (a direct agonist of the Smoothened receptor) activated 10T1/2/Smo#3 cells and Shh Light II reporter cells for the ability to block Hedgehog pathway activation. Concurrently, cell viability was measured by utilizing Celltiter-Blue® (Promega, Madison Wis.) viability assay. Active compounds were defined as those that inhibited Hedgehog signaling by greater than 50% with no concurrent loss in cell viability.
Their inhibitory activity against Hedgehog pathway activation on 10T1/2/Smo#3 cells as measured by ALP activity and Shh Light II reporter cells as measured by luciferase activity is shown in Table 1 below. In Table 1, +++ stands for an IC50 value that is less than 0.3 μM, ++ between 0.3 and 3 μM, + between 3 and 30 μM.
Additional data for compounds of the invention is shown below in Table 2. Their inhibitory activities against Hedgehog pathway activation are shown as IC50 values in μM on 10T1/2/Smo#3 cells as measured by ALP activity, or on Shh Light II reporter cells as measured by luciferase activity (hShh activation).

Structure (SMILES)	IC50
Cc1ccc(-c2cn3nc(-c4cccnc4C(F)(F)F)ccc3n2)cc1C(N)=O [Example 482, 2-methyl-5-(6-(2-(trifluoromethyl)pyridin-3-yl)imidazo[1,2-b]pyridazin-2-yl)benzamide]	> 10000 nM
Cc1ccc(-c2cn3nc(-c4ccc(C(=O)NO)cc4)ccc3n2)cc1NC(=O)C(C)(C)C [compound 588]	1050 nM
COc1cccc(-c2ccc3nc(-c4ccc(C(F)(F)F)c(NC(=O)C(C)(C)C)c4)cn3n2)c1 [Example 229, N-(5-(6-(3-methoxyphenyl)imidazo[1,2-b]pyridazin-2-yl)-2-(trifluoromethyl)phenyl)pivalamide]	313 nM
CC(=O)c1ccc(-c2ccc3nc(-c4ccc(C)c(NC(=O)C(C)(C)C)c4)cn3n2)cc1 [compound 522]	1300 nM
CC(C)(C)C(=O)Nc1cc(-c2cn3nc(-c4cccnc4N4CCOCC4)ccc3n2)ccc1C(F)(F)F [Example 335, N-(5-(6-(2-morpholinopyridin-3-yl)imidazo[1,2-b]pyridazin-2-yl)-2-(trifluoromethyl)phenyl)pivalamide]	1610 nM
Cc1ccc(-c2cn3nc(Cl)ccc3n2)cc1NC(=O)C1(C)CC1 [compound 517]	> 10000 nM
Cc1ccc(-c2cn3nc(-c4ccc(C(N)=NO)cc4)ccc3n2)cc1NC(=O)C(C)(C)C [compound 546]	1130 nM
Cc1ccc(-c2cn3nc(NCc4cccc(C=CC(=O)NO)c4)ccc3n2)cc1NC(=O)C(C)(C)C [compound 614]	4370 nM
CC(C)(C)C(=O)Nc1cc(-c2cn3nc(NC4CCC(O)CC4)ccc3n2)ccc1C(F)(F)F (stereo not shown) [Example 314, N-(5-(6-(4-hydroxycyclohexylamino)imidazo[1,2-b]pyridazin-2-yl)-2-(trifluoromethyl)phenyl)pivalamide]	346 nM
Cc1noc(C)c1-c1ccc2nc(-c3ccc(C(F)(F)F)c(NC(=O)C(C)(C)C)c3)cn2n1 [Example 326, N-(5-(6-(3,5-dimethylisoxazol-4-yl)imidazo[1,2-b]pyridazin-2-yl)-2-(trifluoromethyl)phenyl)pivalamide]	217 nM
C[C@@H]1CNCCN1c1ccc2nc(-c3ccc(C(F)(F)F)c(NC(=O)C(C)(C)C)c3)cn2n1 [Example 466, (R)-N-(5-(6-(2-methylpiperazin-1-yl)imidazo[1,2-b]pyridazin-2-yl)-2-(trifluoromethyl)phenyl)pivalamide]	2020 nM
CC(C)(C)C(=O)Nc1cc(-c2cn3nc(-c4cccnc4N)ccc3n2)ccc1C(F)(F)F [Example 344, N-(5-(6-(2-aminopyridin-3-yl)imidazo[1,2-b]pyridazin-2-yl)-2-(trifluoromethyl)phenyl)pivalamide]	8740 nM
CCOC(=O)COc1ccc(-c2ccc3nc(-c4ccc(C)c(NC(=O)C(C)(C)C)c4)cn3n2)c(C(F)(F)F)n1 [Example 476, ethyl 2-(5-(2-(4-methyl-3-pivalamidophenyl)imidazo[1,2-b]pyridazin-6-yl)-6-(trifluoromethyl)pyridin-2-yloxy)acetate]	427 nM
COC(=O)c1cccc(-c2ccc3nc(-c4ccc(C)c(NC(=O)C(C)(C)C)c4)cn3n2)c1 [compound 583]	742 nM
Cc1ccc(-c2cn3nc(-c4cccnc4C(F)(F)F)ccc3n2)cc1C#N [Example 480, 2-methyl-5-(6-(2-(trifluoromethyl)pyridin-3-yl)imidazo[1,2-b]pyridazin-2-yl)benzonitrile]	5190 nM
COC(=O)c1ccc(-c2ccc3nc(-c4ccc(C)c(NC(=O)C(C)(C)C)c4)cn3n2)cc1 [compound 582]	1140 nM
Cc1ccc(-c2cn3nc(-c4ccc(N)cc4)ccc3n2)cc1NC(=O)C(C)(C)C [compound 550]	418 nM
COC(=O)CN(C(=O)C(C)(C)C)c1cc(-c2cn3nc(-c4cccnc4C(F)(F)F)ccc3n2)ccc1C [compound 515, methyl 2-(N-(2-methyl-5-(6-(2-(trifluoromethyl)pyridin-3-yl)imidazo[1,2-b]pyridazin-2-yl)phenyl)pivalamido)acetate]	911 nM
Cc1ccc(-c2cn3nc(-c4ccc(NC(=O)CCCCCCC(=O)NO)cc4C(F)(F)F)ccc3n2)cc1NC(=O)C(C)(C)C [compound 530]	6680 nM
